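Cells were grown in 96-well plates and exposed to each compound for 48 hours at five concentrations; endpoints were interpolated linearly between bracketing concentrations, or set to the highest concentration if not reached. GI50 is the concentration that inhibits growth by half.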 Activity calls are given as the source filed them. Rule as the data show it: active = GI50 up to about 1.1 µM and inactive = higher.
How the values were obtained:
Test in all cases: NCI-60 cell line screen, 48 h
[1] = tested on: 786-0
[2] = tested on: A498
[3] = tested on: A549
[4] = tested on: ACHN
[5] = tested on: BT-549
[6] = tested on: CAKI-1
[7] = tested on: CCRF-CEM
[8] = tested on: COLO 205
[9] = tested on: DU-145
[10] = tested on: EKVX
[11] = tested on: HCC 2998
[12] = tested on: HCT-116
[13] = tested on: HCT-15
[14] = tested on: HL-60
[15] = tested on: HOP-62
[16] = tested on: HOP-92
[17] = tested on: HT-29
[18] = tested on: Hs-578T
[19] = tested on: IGROV-1
[20] = tested on: K562
[21] = tested on: KM12
[22] = tested on: LOX IMVI
[23] = tested on: M14
[24] = tested on: MCF7
[25] = tested on: MDA-MB-231
[26] = tested on: MDA-MB-435
[27] = tested on: MDA-N
[28] = tested on: MOLT-4
[29] = tested on: Malme-3M
[30] = tested on: NCI-H226
[31] = tested on: NCI-H23
[32] = tested on: NCI-H460
[33] = tested on: NCI-H522
[34] = tested on: NCI/ADR-RES
[35] = tested on: OVCAR-3
[36] = tested on: OVCAR-4
[37] = tested on: OVCAR-5
[38] = tested on: OVCAR-8
[39] = tested on: PC-3
[40] = tested on: RPMI-8226
[41] = tested on: RXF 393
[42] = tested on: SF-268
[43] = tested on: SF-295
[44] = tested on: SF-539
[45] = tested on: SK-MEL-28
[46] = tested on: SK-MEL-2
[47] = tested on: SK-MEL-5
[48] = tested on: SN12C
[49] = tested on: SNB-19
[50] = tested on: SNB-75
[51] = tested on: SR
[52] = tested on: SW-620
[53] = tested on: T47D
[54] = tested on: TK-10
[55] = tested on: U-251
[56] = tested on: UACC-257
[57] = tested on: UACC-62
[58] = tested on: UO-31
[59] = tested on: SK-OV-3

## COC(=O)c1cc(C)ccc1/C=C1\Cc2c(C)cc(C)cc2C1=O
[1]
  GI50: 14 µM (inactive)
[2]
  GI50: 30.8 µM (inactive)
[3]
  GI50: 99.3 µM (inactive)
[4]
  GI50: 60.7 µM (inactive)
[5]
  GI50: 36.5 µM (inactive)
[6]
  GI50: 30.6 µM (inactive)
[7]
  GI50: > 100 µM (inactive)
[8]
  GI50: > 100 µM (inactive)
[9]
  GI50: > 100 µM (inactive)
[10]
  GI50: 41.5 µM (inactive)
[11]
  GI50: > 100 µM (inactive)
[12]
  GI50: 8.41 µM (inactive)
[13]
  GI50: > 100 µM
[14]
  GI50: 21.9 µM (inactive)
[15]
  GI50: 11.9 µM (inactive)
[16]
  GI50: 4.56 µM (inactive)
[17]
  GI50: 10.8 µM (inactive)
[18]
  GI50: 14 µM (inactive)
[19]
  GI50: 65.3 µM (inactive)
[20]
  GI50: > 100 µM (inactive)
[21]
  GI50: > 44 µM (inactive)
[22]
  GI50: > 30.7 µM (inactive)
[23]
  GI50: 17.3 µM (inactive)
[24]
  GI50: > 100 µM (inactive)
[25]
  GI50: > 36.6 µM (inactive)
[26]
  GI50: 59 µM (inactive)
[27]
  GI50: 25.5 µM (inactive)
[28]
  GI50: > 100 µM (inactive)
[29]
  GI50: > 63.4 µM (inactive)
[30]
  GI50: 35.4 µM (inactive)
[31]
  GI50: 14.5 µM (inactive)
[32]
  GI50: > 85.7 µM (inactive)
[33]
  GI50: 21.3 µM (inactive)
[34]
  GI50: 64.3 µM (inactive)
[35]
  GI50: 70.6 µM (inactive)
[36]
  GI50: 24.4 µM (inactive)
[37]
  GI50: > 43.9 µM (inactive)
[38]
  GI50: 47 µM (inactive)
[39]
  GI50: > 39.8 µM (inactive)
[40]
  GI50: 10.3 µM (inactive)
[41]
  GI50: 16.1 µM (inactive)
[42]
  GI50: 15.3 µM (inactive)
[43]
  GI50: 3.61 µM (inactive)
[44]
  GI50: 15.6 µM (inactive)
[45]
  GI50: 99.1 µM (inactive)
[46]
  GI50: 22.8 µM (inactive)
[47]
  GI50: > 100 µM (inactive)
[48]
  GI50: 69 µM (inactive)
[49]
  GI50: 15.7 µM (inactive)
[50]
  GI50: 16.2 µM (inactive)
[51]
  GI50: 20 µM (inactive)
[52]
  GI50: > 100 µM (inactive)
[53]
  GI50: > 97.3 µM (inactive)
[54]
  GI50: 17.9 µM (inactive)
[55]
  GI50: 14 µM (inactive)
[56]
  GI50: > 18.3 µM (inactive)
[57]
  GI50: 6.59 µM (inactive)
[58]
  GI50: 12.3 µM (inactive)

## CC1=NN=C(N)NC1=CC(Sc1ccc(Cl)cc1)c1c(O)ccc2ccccc12 (configuration not stated)
[1]
  GI50: 25.5 µM (inactive)
[2]
  GI50: 18.7 µM (inactive)
[3]
  GI50: 28.9 µM (inactive)
[4]
  GI50: 5.16 µM (inactive)
[5]
  GI50: 13.6 µM (inactive)
[6]
  GI50: 23.7 µM (inactive)
[7]
  GI50: 4.73 µM (inactive)
[8]
  GI50: 16.9 µM (inactive)
[9]
  GI50: 16.1 µM (inactive)
[10]
  GI50: 18 µM (inactive)
[11]
  GI50: 16.7 µM (inactive)
[12]
  GI50: 18.9 µM (inactive)
[13]
  GI50: 16.3 µM
[14]
  GI50: > 10 µM (inactive)
[15]
  GI50: 20.2 µM (inactive)
[16]
  GI50: 20.3 µM (inactive)
[17]
  GI50: 20.5 µM (inactive)
[18]
  GI50: 5.25 µM (inactive)
[19]
  GI50: 13 µM (inactive)
[20]
  GI50: 38.5 µM (inactive)
[21]
  GI50: 14.5 µM (inactive)
[22]
  GI50: 19.3 µM (inactive)
[23]
  GI50: 11.9 µM (inactive)
[24]
  GI50: 20 µM (inactive)
[25]
  GI50: 21.1 µM (inactive)
[26]
  GI50: 19.6 µM (inactive)
[27]
  GI50: 28.2 µM (inactive)
[28]
  GI50: 21.1 µM (inactive)
[29]
  GI50: 3.88 µM (inactive)
[30]
  GI50: 4.55 µM (inactive)
[31]
  GI50: 15.1 µM (inactive)
[32]
  GI50: 17.4 µM (inactive)
[33]
  GI50: 15.5 µM (inactive)
[34]
  GI50: 20.2 µM (inactive)
[36]
  GI50: 16.8 µM (inactive)
[37]
  GI50: 23.1 µM (inactive)
[38]
  GI50: 16.7 µM (inactive)
[39]
  GI50: 16.1 µM (inactive)
[40]
  GI50: 13.5 µM (inactive)
[41]
  GI50: 4.75 µM (inactive)
[42]
  GI50: 11.3 µM (inactive)
[43]
  GI50: 4.21 µM (inactive)
[45]
  GI50: 14 µM (inactive)
[46]
  GI50: 5.02 µM (inactive)
[47]
  GI50: 8.07 µM (inactive)
[59]
  GI50: 18.3 µM (inactive)
[48]
  GI50: 19 µM (inactive)
[49]
  GI50: 20.6 µM (inactive)
[50]
  GI50: 18.6 µM (inactive)
[51]
  GI50: 17.4 µM (inactive)
[52]
  GI50: 24.8 µM (inactive)
[53]
  GI50: 8.51 µM (inactive)
[54]
  GI50: 26.5 µM (inactive)
[55]
  GI50: 18.3 µM (inactive)
[56]
  GI50: 20.9 µM (inactive)
[57]
  GI50: 9.35 µM (inactive)
[58]
  GI50: 6.07 µM (inactive)

## Cc1cc(=O)oc2c(C)c(O)ccc12
[1]
  GI50: > 100 µM (inactive)
[2]
  GI50: 78.9 µM (inactive)
[3]
  GI50: > 100 µM (inactive)
[4]
  GI50: > 100 µM (inactive)
[5]
  GI50: 35.4 µM (inactive)
[6]
  GI50: 55.6 µM (inactive)
[7]
  GI50: > 100 µM (inactive)
[8]
  GI50: > 100 µM (inactive)
[9]
  GI50: > 100 µM (inactive)
[10]
  GI50: > 100 µM (inactive)
[11]
  GI50: > 100 µM (inactive)
[12]
  GI50: > 100 µM (inactive)
[13]
  GI50: > 100 µM
[14]
  GI50: 48.6 µM (inactive)
[15]
  GI50: > 100 µM (inactive)
[16]
  GI50: > 100 µM (inactive)
[17]
  GI50: > 100 µM (inactive)
[18]
  GI50: > 100 µM (inactive)
[19]
  GI50: > 100 µM (inactive)
[20]
  GI50: > 100 µM (inactive)
[21]
  GI50: > 100 µM (inactive)
[22]
  GI50: > 100 µM (inactive)
[23]
  GI50: > 100 µM (inactive)
[24]
  GI50: > 100 µM (inactive)
[25]
  GI50: > 100 µM (inactive)
[26]
  GI50: > 100 µM (inactive)
[27]
  GI50: > 100 µM (inactive)
[28]
  GI50: 89.1 µM (inactive)
[29]
  GI50: > 100 µM (inactive)
[30]
  GI50: > 100 µM (inactive)
[31]
  GI50: > 100 µM (inactive)
[32]
  GI50: > 100 µM (inactive)
[33]
  GI50: > 100 µM (inactive)
[34]
  GI50: > 100 µM (inactive)
[35]
  GI50: > 100 µM (inactive)
[36]
  GI50: > 100 µM (inactive)
[37]
  GI50: > 100 µM (inactive)
[38]
  GI50: > 100 µM (inactive)
[39]
  GI50: > 100 µM (inactive)
[40]
  GI50: 62.1 µM (inactive)
[41]
  GI50: > 100 µM (inactive)
[42]
  GI50: > 100 µM (inactive)
[43]
  GI50: > 100 µM (inactive)
[44]
  GI50: > 100 µM (inactive)
[45]
  GI50: > 100 µM (inactive)
[46]
  GI50: > 100 µM (inactive)
[47]
  GI50: > 100 µM (inactive)
[48]
  GI50: > 100 µM (inactive)
[49]
  GI50: > 100 µM (inactive)
[50]
  GI50: > 100 µM (inactive)
[51]
  GI50: > 100 µM (inactive)
[52]
  GI50: > 100 µM (inactive)
[53]
  GI50: > 100 µM (inactive)
[55]
  GI50: > 100 µM (inactive)
[56]
  GI50: > 100 µM (inactive)
[57]
  GI50: 99.3 µM (inactive)
[58]
  GI50: 22.4 µM (inactive)
